Drawing on ChEMBL document CHEMBL1133425, “Synthesis and dopaminergic activity of heterocyclic analogues of 5,6-dihydroxy-2-aminotetralins” (2000), this text covers pD2 for eleven molecules.

The species entered for assay [1] is Oryctolagus cuniculus. The assay can be described thus: D1-like activity was evaluated as pD2 on a superfused rabbit splenic artery. Type of assay: functional.
The species entered for assay [2] is Oryctolagus cuniculus. Nature of the assay: D2-like activity was evaluated as pD2 on a superfused rabbit ear artery. It counts as functional.

SMILES strings stand for the structures. Bounds are passed on as bounds.

On to `CCCN(CCC)C1CCc2c(ccc(O)c2O)C1` (centres undefined), for which the pD2 in assay [1] is recorded as 6.5; in assay [2], 9.8. Turning to `CCCN(CCCCCCNCCc1ccc(S(C)(=O)=O)cc1)[C@H]1CCc2c(ccc(O)c2O)C1`, the pD2 turned out to be 8.6 in assay [1] and 10.1 in assay [2].

Turning to `CCCN(CCCCCCNCCc1ccc(S(C)(=O)=O)cc1)C1CCc2nc(N)sc2C1` (centres undefined), the pD2 in assay [1] is on record as 6.3; in assay [2], 8.4.

As to `CS(=O)(=O)c1ccc(CCNCCCCCCNCCc2cccnc2)cc1`, the pD2 in assay [1] is <5; in assay [2], 5.5.

Turning to `CCCN(CCCCCCNCCc1ccc(S(C)(=O)=O)cc1)C1CCc2ncccc2C1` (centres undefined), the pD2 in assay [1] is listed as <5; in assay [2], 8.4.

In the case of `CS(=O)(=O)c1ccc(CCNCCCCCCNC2CCc3[nH]ccc3C2)cc1` (centres undefined), the figures for the pD2 in assay [1] and in assay [2] were <5 and <6, respectively.

Take `CCCN(CCCCCCNCCc1ccc(S(C)(=O)=O)cc1)C1CCc2[nH]ccc2C1` (centres undefined): the pD2 in assay [1] is <5.

Consider `CCCN(CCCCCCN(CCC)C1CCc2nc(O)ccc2C1)CCc1ccc(S(C)(=O)=O)cc1` (centres undefined), for which the pD2 in assay [1] is listed as <5. Consider `CS(=O)(=O)c1ccc(CCNCCCCCCNCCc2cc[nH]c2)cc1`, for which the pD2 in assay [1] is given as <5.

Consider `CCCN(CCCCCCN(CCC)CCc1cccnc1)CCc1ccc(S(C)(=O)=O)cc1`, for which the figures for the pD2 in assay [1] and in assay [2] were 5.5 and <6, respectively. With `CS(=O)(=O)c1ccc(CCNCCCCCCNC2CCc3ncccc3C2)cc1` (centres undefined), the pD2 in assay [1] was <5; in assay [2], 6.3.
